Experimental data published in US4882349A, “Pyrrolacetic amides having antiinflammatory activity” (priority 1982, dated 1989).
Like-named read-outs stand apart in the source and are kept apart here.

What was measured:
[1] = tested on: brewers' yeast-induced hyperthermia; assay: antipyretic activity, brewers' yeast-induced hyperthermia; format: in vivo, albino male Wistar rats
Experimental: The animals were caged under the same conditions as those described in the preceding tests. Five hours following […], determined by a rectal probe connected to a YSI thermometer (73 ATP model, Yellow Springs Instrument Company) were selected for the experiment. The animals were then randomized into groups of 10 and the compounds under examination and the vehicle were administered via the oral and parenteral routes testing each dose in two groups. Body temperature was determined at one, two and three hours after administration of the substances. […]

[2] = tested on: gastric lesions; format: in vivo, male Wistar rats; conditions: 4 consecutive days; for gastric damage index: I=mean no. of lesions+mean of severity+% incidence/10; for mean severity: scale 0 (no lesion) to 5 (perforations)
Experimental: Male Wistar rats weighing 180 g were randomized into groups of 10. Three doses of each compound were administered. One group received the vehicle alone (10 ml/kg b.w.). Each dose was given orally for four days consecutively and the rats were sacrificed on the fifth day for necropsy. The ulcerogenic effect was evaluated by the following scale:
(1) each haemorrhagic point at least 1 mm in diameter was scored as 1 lesion,
(2) haemorrhagic points less than 1 mm in diameter were scored in the following manner:
(c) 20 to 29=three lesions
By means of this scale it was possible to obtain the gastric damage index:
I=mean no. of lesions+mean of severity+% incidence/10

[3] = in vivo; conditions: mouse
[4] = in vivo; conditions: rat
[5] = tested on: phenyl-p-quinone-induced writhing (abdominal contractions); assay: phenylquinone-induced writhing test, oral administration 1-24 h before phenyl-quinone (duration of analgesia); format: in vivo, male Wistar rats
Experimental: Male Wistar rats weighing 110±5 g were caged for 10 days at 22±1° C. and given a balanced diet with free access to water. Twenty-four hours before the experiment the animals were randomized into groups of 10 and fasted for 14 hours but with free access to water. Each dose was tested in 3 groups of rats. […] alone (0.5% carboxymethyl-cellulose in physiological saline) in the control animals, each rat was given 2 ml of a 5% absolute ethanol aqueous solution containing 0.36% of phenyl-p-quinone (Sigma Chemical Company) in order to provoke writhings. Fifteen minutes after administration of phenyl-p-quinone the number of contractions were counted for 20 minutes. The inhibiting effect of the compounds under examination on the abdominal contractions induced by phenyl-p-quinone was calculated by the following formula: % protection= [formula]

CCOC(=O)c1ccc(NC(=O)Cc2ccc(C(=O)c3ccc(C)cc3)n2C)cc1 [Compound 1-h, 1-methyl-5-p-toluoylpyrrole-2-N-(4-carboxyethyl-phenyl) acetamide]
% Temperature decrease ([1]; 50 mg/Kg i.p., 1 h): 12.0% | % Temperature decrease ([1]; 50 mg/Kg i.p., 2 h): 29.1% | % Temperature decrease ([1]; 50 mg/Kg i.p., 3 h): 36.2% | % Temperature decrease ([1]; 50 mg/Kg per os, 1 h): 13.0% | % Temperature decrease ([1]; 50 mg/Kg per os, 2 h): 28.0% | % Temperature decrease ([1]; 50 mg/Kg per os, 3 h): 31.1% | % Temperature decrease ([1]; 75 mg/Kg i.p., 1 h): 18.0% | % Temperature decrease ([1]; 75 mg/Kg i.p., 2 h): 27.2% | % Temperature decrease ([1]; 75 mg/Kg i.p., 3 h): 39.4% | % Temperature decrease ([1]; 75 mg/Kg per os, 1 h): 17.0% | % Temperature decrease ([1]; 75 mg/Kg per os, 2 h): 29.1% | % Temperature decrease ([1]; 75 mg/Kg per os, 3 h): 39.4% | % Temperature decrease ([1]; 100 mg/Kg i.p., 1 h): 23.1% | % Temperature decrease ([1]; 100 mg/Kg i.p., 2 h): 39.3% | % Temperature decrease ([1]; 100 mg/Kg i.p., 3 h): 60.2% | % Temperature decrease ([1]; 100 mg/Kg per os, 1 h): 21.0% | % Temperature decrease ([1]; 100 mg/Kg per os, 2 h): 35.1% | % Temperature decrease ([1]; 100 mg/Kg per os, 3 h): 51.8% | % incidence/10 (head is drawing 38) ([2]; 50 mg/Kg orally): 7 | mean no. of lesions ([2]; 50 mg/Kg orally): 1 | gastric damage index ([2]; 50 mg/Kg orally): 9 | mean severity ([2]; 50 mg/Kg orally): 1 | % incidence/10 (head is drawing 38) ([2]; 100 mg/Kg orally): 8 | mean no. of lesions ([2]; 100 mg/Kg orally): 1.5 | gastric damage index ([2]; 100 mg/Kg orally): 10.5 | mean severity ([2]; 100 mg/Kg orally): 1 | % incidence/10 (head is drawing 38) ([2]; 200 mg/Kg orally): 8 | mean no. of lesions ([2]; 200 mg/Kg orally): 2 | gastric damage index ([2]; 200 mg/Kg orally): 11.5 | mean severity ([2]; 200 mg/Kg orally): 1.5

Cc1ccc(C(=O)c2ccc(CC(=O)N3CCOCC3)n2C)cc1 [Compound 3-a, 1-methyl-5-p-toluoylpyrrole-2-N-(4-morpholinyl) acetamide]
% Temperature decrease ([1]; 50 mg/Kg i.p., 1 h): 16.0% | % Temperature decrease ([1]; 50 mg/Kg i.p., 2 h): 26.0% | % Temperature decrease ([1]; 50 mg/Kg i.p., 3 h): 36.7% | % Temperature decrease ([1]; 50 mg/Kg per os, 1 h): 15.5% | % Temperature decrease ([1]; 50 mg/Kg per os, 2 h): 23.0% | % Temperature decrease ([1]; 50 mg/Kg per os, 3 h): 32.1% | % Temperature decrease ([1]; 75 mg/Kg i.p., 1 h): 19.0% | % Temperature decrease ([1]; 75 mg/Kg i.p., 2 h): 30.2% | % Temperature decrease ([1]; 75 mg/Kg i.p., 3 h): 39.4% | % Temperature decrease ([1]; 75 mg/Kg per os, 1 h): 16.2% | % Temperature decrease ([1]; 75 mg/Kg per os, 2 h): 29.1% | % Temperature decrease ([1]; 75 mg/Kg per os, 3 h): 39.4% | % Temperature decrease ([1]; 100 mg/Kg i.p., 1 h): 21.3% | % Temperature decrease ([1]; 100 mg/Kg i.p., 2 h): 36.1% | % Temperature decrease ([1]; 100 mg/Kg i.p., 3 h): 58.1% | % Temperature decrease ([1]; 100 mg/Kg per os, 1 h): 22.0% | % Temperature decrease ([1]; 100 mg/Kg per os, 2 h): 29.5% | % Temperature decrease ([1]; 100 mg/Kg per os, 3 h): 56.1% | % incidence/10 (head is drawing 38) ([2]; 50 mg/Kg orally): 7 | mean no. of lesions ([2]; 50 mg/Kg orally): 1 | gastric damage index ([2]; 50 mg/Kg orally): 9 | mean severity ([2]; 50 mg/Kg orally): 1 | % incidence/10 (head is drawing 38) ([2]; 100 mg/Kg orally): 8 | mean no. of lesions ([2]; 100 mg/Kg orally): 1.5 | gastric damage index ([2]; 100 mg/Kg orally): 11.5 | mean severity ([2]; 100 mg/Kg orally): 2 | % incidence/10 (head is drawing 38) ([2]; 200 mg/Kg orally): 9 | mean no. of lesions ([2]; 200 mg/Kg orally): 1.5 | gastric damage index ([2]; 200 mg/Kg orally): 12.5 | mean severity ([2]; 200 mg/Kg orally): 2 | LD50 ([3]; ip): 1500 mg/kg | LD50 ([3]; po): > 2000 mg/kg | LD50 ([4]; ip): 1370 mg/kg | LD50 ([4]; po): > 2400 mg/kg

Cc1ccc(C(=O)c2ccc(CC(=O)N3CCN(C)CC3)n2C)cc1 [Compound 3-b, 1-methyl-5-p-toluoylpyrrole-2-N-[(4-methyl)-1-piperazinyl] acetamide]
% Temperature decrease ([1]; 50 mg/Kg i.p., 1 h): 12.9% | % Temperature decrease ([1]; 50 mg/Kg i.p., 2 h): 23.0% | % Temperature decrease ([1]; 50 mg/Kg i.p., 3 h): 38.3% | % Temperature decrease ([1]; 50 mg/Kg per os, 1 h): 13.1% | % Temperature decrease ([1]; 50 mg/Kg per os, 2 h): 21.0% | % Temperature decrease ([1]; 50 mg/Kg per os, 3 h): 36.2% | % Temperature decrease ([1]; 75 mg/Kg i.p., 1 h): 23.4% | % Temperature decrease ([1]; 75 mg/Kg i.p., 2 h): 29.0% | % Temperature decrease ([1]; 75 mg/Kg i.p., 3 h): 48.5% | % Temperature decrease ([1]; 75 mg/Kg per os, 1 h): 19.0% | % Temperature decrease ([1]; 75 mg/Kg per os, 2 h): 29.1% | % Temperature decrease ([1]; 75 mg/Kg per os, 3 h): 40.6% | % Temperature decrease ([1]; 100 mg/Kg i.p., 1 h): 32.9% | % Temperature decrease ([1]; 100 mg/Kg i.p., 2 h): 39.0% | % Temperature decrease ([1]; 100 mg/Kg i.p., 3 h): 60.1% | % Temperature decrease ([1]; 100 mg/Kg per os, 1 h): 27.0% | % Temperature decrease ([1]; 100 mg/Kg per os, 2 h): 35.0% | % Temperature decrease ([1]; 100 mg/Kg per os, 3 h): 59.7% | % incidence/10 (head is drawing 38) ([2]; 50 mg/Kg orally): 7 | mean no. of lesions ([2]; 50 mg/Kg orally): 1 | gastric damage index ([2]; 50 mg/Kg orally): 9 | mean severity ([2]; 50 mg/Kg orally): 1 | % incidence/10 (head is drawing 38) ([2]; 100 mg/Kg orally): 7 | mean no. of lesions ([2]; 100 mg/Kg orally): 1 | % incidence/10 (head is drawing 38) ([2]; 200 mg/Kg orally): 8 | mean no. of lesions ([2]; 200 mg/Kg orally): 2 | LD50 ([3]; ip): 770 mg/kg | LD50 ([3]; po): 1200 mg/kg | LD50 ([4]; ip): 590 mg/kg | LD50 ([4]; po): 1000 mg/kg

Cc1ccc(C(=O)c2ccc(CC(=O)O)n2C)cc1 [Tolmetin Na.2H2 O, 1-methyl-5-p-toluoylpyrrole-2-acetic acid, reference compound]
% Protection ([5]; 10 mg/Kg oral, 1 h before phenyl-quinone): 51.8% | % Protection ([5]; 10 mg/Kg oral, 2 h before phenyl-quinone): 35.5% | % Protection ([5]; 10 mg/Kg oral, 4 h before phenyl-quinone): 32.0% | % Protection ([5]; 10 mg/Kg oral, 6 h before phenyl-quinone): 17.2% | % Protection ([5]; 10 mg/Kg oral, 8 h before phenyl-quinone): 20.2% | % Protection ([5]; 10 mg/Kg oral, 16 h before phenyl-quinone): 3.0% | % Protection ([5]; 10 mg/Kg oral, 24 h before phenyl-quinone): 5.0% | % Protection ([5]; 20 mg/Kg oral, 1 h before phenyl-quinone): 79.6% | % Protection ([5]; 20 mg/Kg oral, 2 h before phenyl-quinone): 78.0% | % Protection ([5]; 20 mg/Kg oral, 4 h before phenyl-quinone): 50.0% | % Protection ([5]; 20 mg/Kg oral, 6 h before phenyl-quinone): 45.3% | % Protection ([5]; 20 mg/Kg oral, 8 h before phenyl-quinone): 40.1% | % Protection ([5]; 20 mg/Kg oral, 16 h before phenyl-quinone): 8.7% | % Protection ([5]; 20 mg/Kg oral, 24 h before phenyl-quinone): 4.2% | % Protection ([5]; 50 mg/Kg oral, 1 h before phenyl-quinone): 81.0% | % Protection ([5]; 50 mg/Kg oral, 2 h before phenyl-quinone): 84.6% | % Protection ([5]; 50 mg/Kg oral, 4 h before phenyl-quinone): 62.5% | % Protection ([5]; 50 mg/Kg oral, 6 h before phenyl-quinone): 49.7% | % Protection ([5]; 50 mg/Kg oral, 8 h before phenyl-quinone): 45.0% | % Protection ([5]; 50 mg/Kg oral, 16 h before phenyl-quinone): 9.3% | % Protection ([5]; 50 mg/Kg oral, 24 h before phenyl-quinone): 3.8%
